Test [1] concerns the target Human α2δ-1 subunit of Cav2.2 calcium channel (Homo sapiens, UniProt P54289). Kind of test: biochemical. It counts as binding.
The target of the next test is Human μ-opioid receptor (Homo sapiens, UniProt P35372). Kind of test: biochemical. It is filed as binding.

Structures are written as SMILES. Where two headings read alike, the source gives them in different places.

Human μ-opioid receptor, sequence (P35372 whole entry): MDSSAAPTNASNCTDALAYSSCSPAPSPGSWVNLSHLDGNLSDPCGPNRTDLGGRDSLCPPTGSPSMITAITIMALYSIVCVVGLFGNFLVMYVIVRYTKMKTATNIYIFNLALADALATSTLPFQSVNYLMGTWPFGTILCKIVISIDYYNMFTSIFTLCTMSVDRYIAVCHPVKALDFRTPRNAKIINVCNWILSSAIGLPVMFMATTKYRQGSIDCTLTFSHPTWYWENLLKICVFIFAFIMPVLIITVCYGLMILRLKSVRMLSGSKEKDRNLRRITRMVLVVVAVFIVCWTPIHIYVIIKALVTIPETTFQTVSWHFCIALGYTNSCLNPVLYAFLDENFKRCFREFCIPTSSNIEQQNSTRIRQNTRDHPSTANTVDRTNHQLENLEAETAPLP
Human α2δ-1 subunit of Cav2.2 calcium channel, sequence (P54289 25-1103): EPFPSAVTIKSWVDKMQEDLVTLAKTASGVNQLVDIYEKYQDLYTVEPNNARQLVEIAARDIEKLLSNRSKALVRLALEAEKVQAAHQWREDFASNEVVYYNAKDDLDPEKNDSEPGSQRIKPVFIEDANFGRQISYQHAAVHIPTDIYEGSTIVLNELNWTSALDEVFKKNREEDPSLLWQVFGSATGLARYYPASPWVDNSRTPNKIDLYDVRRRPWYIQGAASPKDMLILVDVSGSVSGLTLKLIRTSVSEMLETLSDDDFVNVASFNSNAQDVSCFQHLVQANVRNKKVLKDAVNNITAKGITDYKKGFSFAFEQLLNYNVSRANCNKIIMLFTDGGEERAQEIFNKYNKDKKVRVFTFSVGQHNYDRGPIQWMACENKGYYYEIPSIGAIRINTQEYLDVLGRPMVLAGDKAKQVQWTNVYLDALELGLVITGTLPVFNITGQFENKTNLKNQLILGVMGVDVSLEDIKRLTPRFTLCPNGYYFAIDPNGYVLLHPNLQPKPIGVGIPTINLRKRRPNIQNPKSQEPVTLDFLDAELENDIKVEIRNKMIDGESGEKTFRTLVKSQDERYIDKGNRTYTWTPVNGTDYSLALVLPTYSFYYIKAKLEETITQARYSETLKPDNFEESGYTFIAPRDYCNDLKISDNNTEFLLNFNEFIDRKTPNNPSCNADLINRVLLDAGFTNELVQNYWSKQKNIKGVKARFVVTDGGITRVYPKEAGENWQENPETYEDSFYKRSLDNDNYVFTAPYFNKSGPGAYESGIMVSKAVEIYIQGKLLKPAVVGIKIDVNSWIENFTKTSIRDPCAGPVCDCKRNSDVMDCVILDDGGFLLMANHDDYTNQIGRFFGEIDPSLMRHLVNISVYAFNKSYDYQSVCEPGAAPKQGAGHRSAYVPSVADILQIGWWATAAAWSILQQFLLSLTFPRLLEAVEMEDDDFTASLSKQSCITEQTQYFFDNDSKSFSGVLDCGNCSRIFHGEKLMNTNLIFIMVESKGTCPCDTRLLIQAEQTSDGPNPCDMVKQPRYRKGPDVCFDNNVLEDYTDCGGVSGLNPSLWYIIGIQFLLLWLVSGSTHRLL

On to `CCCC(c1nc2ccc(CCN(C)Cc3ccccc3)cc2c(=O)n1CC)N1C[C@@H](C)N[C@@H](C)C1` (stereo partly drawn) [Example 174, 6-(2-(Benzyl(methyl)amino)ethyl)-2-(1-((3S,5R)-3,5-dimethylpiperazin-1-yl)butyl)-3-ethylquinazolin-4(3H)-one], for which the Ki in test [1] is less than 500 nM; on Human μ-opioid receptor, more than 500 nM.

In the case of `CCCC(c1nc2ccc(CCN(C)CCC(C)C)cc2c(=O)n1CC)N1C[C@@H](C)N[C@@H](C)C1` (stereo partly drawn) [Example 175, 2-(1-((3S,5R)-3,5-dimethylpiperazin-1-yl)butyl)-3-ethyl-6-(2-(isopentyl(methyl)amino)ethyl)quinazolin-4(3H)-one], the Ki is less than 500 nM in test [1] and more than 500 nM at Human μ-opioid receptor.

As for `CCCC(c1nc2cc(C#N)ccc2c(=O)n1C)N1C[C@@H](C)N[C@@H](C)C1` (stereo partly drawn) [Example 176, 2-(1-((3S,5R)-3,5-Dimethylpiperazin-1-yl)butyl)-3-methyl-4-oxo-3,4-dihydroquinazoline-7-carbonitrile], the Ki was less than 500 nM in test [1] and more than 500 nM on Human μ-opioid receptor.

Turning to `CCCC(c1nc2ccc(C#N)cc2c(=O)n1CC)N1C[C@@H](C)N[C@@H](C)C1` (stereo partly drawn) [Example 177, 2-(1-((3S,5R)-3,5-dimethylpiperazin-1-yl)butyl)-3-ethyl-4-oxo-3,4-dihydroquinazoline-6-carbonitrile], the Ki in test [1] is less than 500 nM; at Human μ-opioid receptor, more than 500 nM.

Take `CCCC(c1nc2cc(C(=O)O)ccc2c(=O)n1C)N1C[C@@H](C)N[C@@H](C)C1` (stereo partly drawn) [Example 178, 2-(1-((3S,5R)-3,5-Dimethylpiperazin-1-yl)butyl)-3-methyl-4-oxo-3,4-dihydroquinazoline-7-carboxylic acid]: the Ki was 500 to 5000 nM in test [1] (read-out: α2δ-1 binding) and more than 500 nM on Human μ-opioid receptor (read-out: μ-binding).

As for `CCCC(c1nc2cc(C(=O)O)ccc2c(=O)n1CC)N1C[C@@H](C)N[C@@H](C)C1` (stereo partly drawn) [Example 179, 2-(1-((3S,5R)-3,5-dimethylpiperazin-1-yl)butyl)-3-ethyl-4-oxo-3,4-dihydroquinazoline-7-carboxylic acid], the Ki in test [1] (read-out: α2δ-1 binding) was 500 to 5000 nM; on Human μ-opioid receptor (read-out: μ-binding), more than 500 nM.

In the case of `CCCC(c1nc2cc(C(=O)NCc3ccccc3)ccc2c(=O)n1CC)N1C[C@@H](C)N[C@@H](C)C1` (stereo partly drawn) [Example 180, N-Benzyl-2-(1-((3S,5R)-3,5-dimethylpiperazin-1-yl)butyl)-3-ethyl-4-oxo-3,4-dihydroquinazoline-7-carboxamide], the Ki was less than 500 nM in test [1] and more than 500 nM at Human μ-opioid receptor.

Turning to `CCCC(c1nc2ccc(CN(C)Cc3ccccc3)cc2c(=O)n1CC)N1C[C@@H](C)N[C@@H](C)C1` (stereo partly drawn) [Example 183, 6-((benzyl(methyl)amino)methyl)-2-(1-((3S,5R)-3,5-dimethylpiperazin-1-yl)butyl)-3-ethylquinazolin-4(3H)-one], the Ki in test [1] is less than 500 nM; at Human μ-opioid receptor it was more than 500 nM.

For the compound `CCCC(c1nc2ccc(CN(C)CC(C)C)cc2c(=O)n1CC)N1C[C@@H](C)N[C@@H](C)C1` (stereo partly drawn) [Example 184, 2-(1-((3S,5R)-3,5-dimethylpiperazin-1-yl)butyl)-3-ethyl-6-((isobutyl(methyl)amino)methyl)quinazolin-4(3H)-one], the Ki in test [1] was less than 500 nM; on Human μ-opioid receptor, more than 500 nM.

Turning to `CCCC(c1nc2ccc(CN(C)CCC(C)C)cc2c(=O)n1CC)N1C[C@@H](C)N[C@@H](C)C1` (stereo partly drawn) [Example 185, 2-(1-((3S,5R)-3,5-dimethylpiperazin-1-yl)butyl)-3-ethyl-6-((isopentyl(methyl)amino)methyl)quinazolin-4(3H)-one], the Ki was less than 500 nM in test [1] and more than 500 nM on Human μ-opioid receptor.

On to `CCCC(c1nc2cc(CN3CCN(C)CC3)ccc2c(=O)n1C)N1C[C@@H](C)N[C@@H](C)C1` (stereo partly drawn) [Example 186, 2-(1-((3S,5R)-3,5-dimethylpiperazin-1-yl)butyl)-3-methyl-7-((4-methylpiperazin-1-yl)methyl)quinazolin-4(3H)-one], for which the results for the Ki (in test [1]; at Human μ-opioid receptor) were less than 500 nM and more than 500 nM, respectively.

`CCCC(c1nc2ccc(Br)cc2c(=O)n1CC)C1CCNCC1` (stereo not shown) [Example 187, 6-Bromo-3-ethyl-2-(1-(piperidin-4-yl)butyl)quinazolin-4(3H)-one]: the values for the Ki (in test [1] (read-out: α2δ-1 binding); on Human μ-opioid receptor (read-out: μ-binding)) were 500 to 5000 nM and more than 500 nM, respectively.

Turning to `CCCC(C1=CCNCC1)c1nc2ccc(Br)cc2c(=O)n1CC` (stereo not shown) [Example 188, 6-bromo-3-ethyl-2-(1-(1,2,3,6-tetrahydropyridin-4-yl)butyl)quinazolin-4(3H)-one], the results for the Ki (in test [1] (read-out: α2δ-1 binding); at Human μ-opioid receptor (read-out: μ-binding)) were 500 to 5000 nM and more than 500 nM, respectively.

On to `CCC[C@@H](c1nc2ccc(Br)cc2c(=O)n1CC)[C@H]1CCN[C@@H](C)C1` [Example 190, 6-Bromo-3-ethyl-2-((R)-1-((2S,4S)-2-methylpiperidin-4-yl)butyl)quinazolin-4(3H)-one], for which the results for the Ki (in test [1]; on Human μ-opioid receptor) were more than 5000 nM and more than 500 nM, respectively.

With `CCC[C@H](c1nc2ccc(Br)cc2c(=O)n1CC)[C@H]1CCN[C@@H](C)C1` [Example 191, 6-bromo-3-ethyl-2-((S)-1-((2S,4S)-2-methylpiperidin-4-yl)butyl)quinazolin-4(3H)-one], the Ki in test [1] is less than 500 nM; on Human μ-opioid receptor it was 100 to 500 nM.

Regarding `CCC[C@@H](c1nc2ccc(Br)cc2c(=O)n1CC)[C@@H]1CCN[C@@H](C)C1` [Example 192, 6-bromo-3-ethyl-2-((R)-1-((2S,4R)-2-methylpiperidin-4-yl)butyl)quinazolin-4(3H)-one], the values for the Ki (in test [1]; at Human μ-opioid receptor) were more than 5000 nM and more than 500 nM, respectively.

With `CCC[C@H](c1nc2ccc(Br)cc2c(=O)n1CC)[C@@H]1CCN[C@@H](C)C1` [Example 193, 6-bromo-3-ethyl-2-((S)-1-((2S,4R)-2-methylpiperidin-4-yl)butyl)quinazolin-4(3H)-one], the Ki in test [1] is more than 5000 nM; at Human μ-opioid receptor, more than 500 nM.

As for `CCC[C@H](c1nc2ccc(Br)cc2c(=O)n1CC)[C@@H]1CCNCC1(F)F` [Example 194, 6-Bromo-2-((S)-1-((S)-3,3-difluoropiperidin-4-yl)butyl)-3-ethylquinazolin-4(3H)-one], the figures for the Ki (in test [1]; on Human μ-opioid receptor) were more than 5000 nM and more than 500 nM, respectively.

Turning to `CCC[C@@H](c1nc2ccc(Br)cc2c(=O)n1CC)[C@H]1CCNCC1(F)F` [Example 195, 6-bromo-2-((R)-1-((R)-3,3-difluoropiperidin-4-yl)butyl)-3-ethylquinazolin-4(3H)-one], the Ki in test [1] is less than 500 nM; on Human μ-opioid receptor, more than 500 nM.

On to `CCC[C@H](c1nc2ccc(Br)cc2c(=O)n1CC)[C@H]1CCNCC1(F)F` [Example 196, 6-bromo-2-((S)-1-((R)-3,3-difluoropiperidin-4-yl)butyl)-3-ethylquinazolin-4(3H)-one], for which the Ki was more than 5000 nM in test [1] and more than 500 nM on Human μ-opioid receptor.

As for `CCC[C@@H](c1nc2ccc(Br)cc2c(=O)n1CC)[C@@H]1CCNCC1(F)F` [Example 197, 6-bromo-2-((R)-1-((S)-3,3-difluoropiperidin-4-yl)butyl)-3-ethylquinazolin-4(3H)-one], the Ki in test [1] is 500 to 5000 nM; at Human μ-opioid receptor it was more than 500 nM.

`CCC[C@H](c1nc2ccc(Cl)cc2c(=O)n1C)N1CCN[C@@H](C)C1` [Example 198, 6-chloro-3-methyl-2-((R)-1-((S)-3-methylpiperazin-1-yl)butyl)quinazolin-4(3H)-one]: the Ki in test [1] was less than 500 nM; at Human μ-opioid receptor, 100 to 500 nM.

In the case of `CCC[C@H](c1nc2c(F)cc(Cl)cc2c(=O)n1CC)N1CCNCC1` [Example 199, (R)-6-chloro-3-ethyl-8-fluoro-2-(1-(piperazin-1-yl)butyl)quinazolin-4(3H)-one], the Ki is less than 500 nM in test [1] and 100 to 500 nM on Human μ-opioid receptor.

In the case of `CCC[C@H](c1nc2c(F)cc(F)cc2c(=O)n1CC)N1CCNCC1` [Example 200, (R)-3-ethyl-6,8-difluoro-2-(1-(piperazin-1-yl)butyl)quinazolin-4(3H)-one], the Ki is less than 500 nM in test [1] and 100 to 500 nM on Human μ-opioid receptor.

In the case of `CCC[C@H](c1nc2c(F)cc(F)cc2c(=O)n1CC)N1CCN[C@@H](C)C1` [Example 201, 3-ethyl-6,8-difluoro-2-((R)-1-((S)-3-methylpiperazin-1-yl)butyl)quinazolin-4(3H)-one], the Ki was less than 500 nM in test [1] and less than 100 nM on Human μ-opioid receptor.

Consider `CCC[C@H](c1nc2ccc(F)cc2c(=O)n1CCC)N1CCN[C@@H](C)C1` [Example 202, 6-fluoro-2-((R)-1-((S)-3-methylpiperazin-1-yl)butyl)-3-propylquinazolin-4(3H)-one], for which the Ki is less than 500 nM in test [1] and more than 500 nM on Human μ-opioid receptor.

`CCC[C@H](c1nc2c(F)cccc2c(=O)n1CC)N1CCN[C@@H](C)C1` [Example 203, 3-ethyl-8-fluoro-2-((R)-1-((S)-3-methylpiperazin-1-yl)butyl)quinazolin-4(3H)-one]: the Ki was less than 500 nM in test [1] and more than 500 nM at Human μ-opioid receptor.

Turning to `CCC[C@H](c1nc2ccc(OC(F)(F)F)cc2c(=O)n1CC)N1CCN[C@@H](C)C1` [Example 204, 3-ethyl-2-((R)-1-((S)-3-methylpiperazin-1-yl)butyl)-6-(trifluoromethoxy)quinazolin-4(3H)-one], the Ki in test [1] is less than 500 nM; on Human μ-opioid receptor it was more than 500 nM.

Consider `CCC[C@H](c1nc2ccc(F)cc2c(=O)n1C)N1CCN[C@@H](C)C1` [Example 205, 6-fluoro-3-methyl-2-((R)-1-((S)-3-methylpiperazin-1-yl)butyl)quinazolin-4(3H)-one], for which the results for the Ki (in test [1]; on Human μ-opioid receptor) were less than 500 nM and 100 to 500 nM, respectively.

Take `CCC[C@H](c1nc2cc(Cl)c(Cl)cc2c(=O)n1C)N1CCN[C@@H](C)C1` [Example 206, 6,7-dichloro-3-methyl-2-((R)-1-((S)-3-methylpiperazin-1-yl)butyl)quinazolin-4(3H)-one]: the Ki in test [1] is less than 500 nM; on Human μ-opioid receptor, 100 to 500 nM.

As to `CCC[C@H](c1nc2ccc(C(F)(F)F)cc2c(=O)n1CC)N1CCN[C@@H](C)C1` [Example 207, 3-ethyl-2-((R)-1-((S)-3-methylpiperazin-1-yl)butyl)-6-(trifluoromethyl)quinazolin-4(3H)-one], the results for the Ki (in test [1]; at Human μ-opioid receptor) were less than 500 nM and 100 to 500 nM, respectively.

For the compound `CCC[C@H](c1nc2cc(F)c(Br)cc2c(=O)n1CC)N1CCN[C@H](C)C1` [Example 208, 6-bromo-3-ethyl-7-fluoro-2-((R)-1-((R)-3-methylpiperazin-1-yl)butyl)quinazolin-4(3H)-one], the Ki in test [1] is less than 500 nM; at Human μ-opioid receptor it was more than 500 nM.

Source of the values: US20220002314A1 (priority 2018, published 2022).
